This is an account of results in paper PMC6692352, “DF2726A, a new IL-8 signalling inhibitor, is able to counteract chemotherapy-induced neuropathic pain” (Scientific Reports, 2019).

One series relates to F11 cells. Briefly: Cell viability assay in F11 neuronal cells. The following applies: 24 h, 5–60 µM.
Details of series [1]: method as in PMID 28423567. The following applies: p.o. administration ref 22; cited from earlier work.

Procedure for F11 cells: For the subsequent experiments, DF2726A was used at a final concentration of 1 µM, and oxaliplatin at a final concentration of 20 µM. For comparison, paclitaxel alone or in combination with DF2726A was also used.
F11 hybridoma cells (ECACC 08062601), chosen as a model of DRG neurons[22],[32],[33] were cultivated in DMEM (Euroclone, Milan, Italy) supplemented with 10% FBS (Sigma-Aldrich, St. Louis, MO, USA), 1% penicillin/streptomycin (Euroclone, MI, Italy) and 1% glutamine (Euroclone) at 37 °C, in humidified 95% air with 5% CO2 atmosphere. For all the experiments, cells were used at 18th passage.
Supplementary Fig. 2: Effect of DF2726A, oxaliplatin and paclitaxel treatment on neuronal cell
viability. Cell viability assay of F11 cells after treatment at different concentrations of DF 2726A
(DF; 1-20 µM), oxaliplatin (OXA, 5-60 µM), paclitaxel (PAC, 5-20 nM) and the combination of 20
µM oxaliplatin+DF2726A (Oxa+DF) and paclitaxel+DF2726A (PAC+DF) at 24 h. Data are means

On to `O=C1[O][Pt]2([NH][C@@H]3CCCC[C@H]3[NH]2)[O]C1=O` [oxaliplatin, reference compound], for which, in the series on F11 cells, the Neuronal cell viability result is “ineffective in modulating neuronal cell viability”.
Regarding `CC(C)Cc1ccc([C@@H](C)C(=O)NS(C)(=O)=O)cc1` [reparixin], the half-life (usually how long it takes for the measured level to halve) in series [1] is given as 1.78 h.
